# In PubChem BioAssay AID1918938 (Molecular Pharmacology Branch, DTP, NCI, 2023):
# Tested on: 556581-035-R-J1-PDC complex spheroid viability
# Assay: Anticancer human tumor 556581-035-R-J1-PDC patient-derived ovarian carcinoma cell line growth inhibition
# Details: for IC50: curve of first compound; for viability, T/C: stronger effect = lower value
# Procedure, shortened: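 Complex spheroids of tumor cells with HUVEC and human MSCs, exposed to iadademstat combined with other agents. Each agent tested in half-log steps from near clinical Cmax (else 10 microM top), DMSO ≤0.25%.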
# [1] = second compound 0.1 µM, first compound 0.000316 µM
# [2] = second compound 0.1 µM, first compound 0.001 µM
# [3] = second compound 0.1 µM, first compound 0.00316 µM
# [4] = second compound 0.1 µM, first compound 0.01 µM
# [5] = second compound 0.1 µM, first compound 0.0316 µM
# [6] = second compound 0.1 µM, first compound 0.1 µM
# [7] = second compound 0.316 µM, first compound 0.000316 µM
# [8] = second compound 0.316 µM, first compound 0.001 µM
# [9] = second compound 0.316 µM, first compound 0.00316 µM
# [10] = second compound 0.316 µM, first compound 0.01 µM
# [11] = second compound 0.316 µM, first compound 0.0316 µM
# [12] = second compound 0.316 µM, first compound 0.1 µM
# [13] = second compound 1 µM, first compound 0.000316 µM
# [14] = second compound 1 µM, first compound 0.001 µM
# [15] = second compound 1 µM, first compound 0.00316 µM
# [16] = second compound 1 µM, first compound 0.01 µM
# [17] = second compound 1 µM, first compound 0.0316 µM
# [18] = second compound 1 µM, first compound 0.1 µM
# [19] = second compound 3.16 µM, first compound 0.000316 µM
# [20] = second compound 3.16 µM, first compound 0.001 µM
# [21] = second compound 3.16 µM, first compound 0.00316 µM
# [22] = second compound 3.16 µM, first compound 0.01 µM
# [23] = second compound 3.16 µM, first compound 0.0316 µM
# [24] = second compound 3.16 µM, first compound 0.1 µM
# [25] = second compound 10 µM, first compound 0.000316 µM
# [26] = second compound 10 µM, first compound 0.001 µM
# [27] = second compound 10 µM, first compound 0.00316 µM
# [28] = second compound 10 µM, first compound 0.01 µM
# [29] = second compound 10 µM, first compound 0.0316 µM
# [30] = second compound 10 µM, first compound 0.1 µM
# 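Also: spheroids exposed to agents for seven days.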
# 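For viability, T/C in this document: 100% = DMSO vehicle control wells.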
smiles,measurement,setting,value
CC(C)CC(NC(=O)C(Cc1ccccc1)NC(=O)c1cnccn1)B(O)O (stereo not given) + NC1CC1c1ccc(-c2cccc(O)c2)cc1,IC50,second compound 0.1 µM,< 0.316 nM
same,IC50,second compound 0.316 µM,< 0.316 nM
same,IC50,second compound 1 µM,< 0.316 nM
same,IC50,second compound 3.16 µM,< 0.316 nM
same,IC50,second compound 10 µM,< 0.316 nM
same,"viability, T/C",[1],1.61%
same,"viability, T/C",[2],0.66%
same,"viability, T/C",[3],0.12%
same,"viability, T/C",[4],0.19%
same,"viability, T/C",[5],0.14%
same,"viability, T/C",[6],0.26%
same,"viability, T/C",[7],3.63%
same,"viability, T/C",[8],0.1%
same,"viability, T/C",[9],0.35%
same,"viability, T/C",[10],0.1%
same,"viability, T/C",[11],0.09%
same,"viability, T/C",[12],0.17%
same,"viability, T/C",[13],1.67%
same,"viability, T/C",[14],0.11%
same,"viability, T/C",[15],0.08%
same,"viability, T/C",[16],0.1%
same,"viability, T/C",[17],0.1%
same,"viability, T/C",[18],0.2%
same,"viability, T/C",[19],1.12%
same,"viability, T/C",[20],0.11%
same,"viability, T/C",[21],0.11%
same,"viability, T/C",[22],0.08%
same,"viability, T/C",[23],0.09%
same,"viability, T/C",[24],0.31%
same,"viability, T/C",[25],1.94%
same,"viability, T/C",[26],0.27%
same,"viability, T/C",[27],0.22%
same,"viability, T/C",[28],5.89%
same,"viability, T/C",[29],0.35%
same,"viability, T/C",[30],0.86%
CC(C)CC(NC(=O)CNC(=O)c1cc(Cl)ccc1Cl)B1OC(=O)CC(CC(=O)O)(C(=O)O)O1 (stereo not given) + NC1CC1c1ccc(-c2cccc(O)c2)cc1,IC50,second compound 0.1 µM,2.44 nM
same,IC50,second compound 0.316 µM,2.84 nM
same,IC50,second compound 1 µM,2.78 nM
same,IC50,second compound 3.16 µM,2.67 nM
same,IC50,second compound 10 µM,2.73 nM
same,"viability, T/C",[1],85.1%
same,"viability, T/C",[2],95.6%
same,"viability, T/C",[3],38.2%
same,"viability, T/C",[4],2.07%
same,"viability, T/C",[5],0.71%
same,"viability, T/C",[6],0.3%
same,"viability, T/C",[7],85.4%
same,"viability, T/C",[8],96%
same,"viability, T/C",[9],45.8%
same,"viability, T/C",[10],1.79%
same,"viability, T/C",[11],1.03%
same,"viability, T/C",[12],0.98%
same,"viability, T/C",[13],91%
same,"viability, T/C",[14],95%
same,"viability, T/C",[15],44.5%
same,"viability, T/C",[16],0.78%
same,"viability, T/C",[17],0.36%
same,"viability, T/C",[18],0.22%
same,"viability, T/C",[19],82.8%
same,"viability, T/C",[20],85%
same,"viability, T/C",[21],44.1%
same,"viability, T/C",[22],0.89%
same,"viability, T/C",[23],0.65%
same,"viability, T/C",[24],0.31%
same,"viability, T/C",[25],85.4%
same,"viability, T/C",[26],74.8%
same,"viability, T/C",[27],47.1%
same,"viability, T/C",[28],3.21%
same,"viability, T/C",[29],0.15%
same,"viability, T/C",[30],1.14%
COc1cc(Nc2ncc3c(n2)-c2ccc(Cl)cc2C(c2c(F)cccc2OC)=NC3)ccc1C(=O)O + NC1CC1c1ccc(-c2cccc(O)c2)cc1,IC50,second compound 0.1 µM,42.2 nM
same,IC50,second compound 0.316 µM,27.5 nM
same,IC50,second compound 1 µM,50.5 nM
same,IC50,second compound 3.16 µM,440 nM
same,IC50,second compound 10 µM,> 1000 nM
same,"viability, T/C",[3],57.3%
same,"viability, T/C",[4],51.5%
same,"viability, T/C",[5],53.3%
same,"viability, T/C",[6],44.6%
same,"viability, T/C","second compound 0.1 µM, first compound 0.316 µM",45.7%
same,"viability, T/C","second compound 0.1 µM, first compound 1 µM",37.3%
same,"viability, T/C",[9],57.6%
same,"viability, T/C",[10],56.5%
same,"viability, T/C",[11],51.2%
same,"viability, T/C",[12],43.1%
same,"viability, T/C","second compound 0.316 µM, first compound 0.316 µM",37.4%
same,"viability, T/C","second compound 0.316 µM, first compound 1 µM",37.8%
same,"viability, T/C",[15],50.5%
same,"viability, T/C",[16],49%
same,"viability, T/C",[17],59.7%
same,"viability, T/C",[18],42.9%
same,"viability, T/C","second compound 1 µM, first compound 0.316 µM",46.4%
same,"viability, T/C","second compound 1 µM, first compound 1 µM",37.9%
same,"viability, T/C",[21],58.3%
same,"viability, T/C",[22],57.4%
same,"viability, T/C",[23],60.4%
same,"viability, T/C",[24],49.7%
same,"viability, T/C","second compound 3.16 µM, first compound 0.316 µM",56%
same,"viability, T/C","second compound 3.16 µM, first compound 1 µM",42.5%
same,"viability, T/C",[27],73.8%
same,"viability, T/C",[28],60.5%
same,"viability, T/C",[29],59.7%
same,"viability, T/C",[30],55.5%
same,"viability, T/C","second compound 10 µM, first compound 0.316 µM",52%
same,"viability, T/C","second compound 10 µM, first compound 1 µM",50.2%
O=C(C=Cc1cccc(S(=O)(=O)Nc2ccccc2)c1)NO + NC1CC1c1ccc(-c2cccc(O)c2)cc1,IC50,second compound 0.1 µM,65.8 nM
same,IC50,second compound 0.316 µM,70.7 nM
same,IC50,second compound 1 µM,69.2 nM
same,IC50,second compound 3.16 µM,66.5 nM
same,IC50,second compound 10 µM,63.6 nM
same,"viability, T/C","second compound 0.1 µM, first compound 0.00949 µM",85.4%
same,"viability, T/C","second compound 0.1 µM, first compound 0.03 µM",75.1%
same,"viability, T/C","second compound 0.1 µM, first compound 0.0949 µM",36.9%
same,"viability, T/C","second compound 0.1 µM, first compound 0.3 µM",14.6%
same,"viability, T/C","second compound 0.1 µM, first compound 0.949 µM",1.81%
same,"viability, T/C","second compound 0.1 µM, first compound 3 µM",0.79%
same,"viability, T/C","second compound 0.316 µM, first compound 0.00949 µM",78.8%
same,"viability, T/C","second compound 0.316 µM, first compound 0.03 µM",69.1%
same,"viability, T/C","second compound 0.316 µM, first compound 0.0949 µM",43.9%
same,"viability, T/C","second compound 0.316 µM, first compound 0.3 µM",8.31%
same,"viability, T/C","second compound 0.316 µM, first compound 0.949 µM",0.59%
same,"viability, T/C","second compound 0.316 µM, first compound 3 µM",0.61%
same,"viability, T/C","second compound 1 µM, first compound 0.00949 µM",79.5%
same,"viability, T/C","second compound 1 µM, first compound 0.03 µM",72.9%
same,"viability, T/C","second compound 1 µM, first compound 0.0949 µM",40.6%
same,"viability, T/C","second compound 1 µM, first compound 0.3 µM",13.6%
same,"viability, T/C","second compound 1 µM, first compound 0.949 µM",0.92%
same,"viability, T/C","second compound 1 µM, first compound 3 µM",0.19%
same,"viability, T/C","second compound 3.16 µM, first compound 0.00949 µM",82.8%
same,"viability, T/C","second compound 3.16 µM, first compound 0.03 µM",74.1%
same,"viability, T/C","second compound 3.16 µM, first compound 0.0949 µM",37.5%
same,"viability, T/C","second compound 3.16 µM, first compound 0.3 µM",16.5%
same,"viability, T/C","second compound 3.16 µM, first compound 0.949 µM",0.75%
same,"viability, T/C","second compound 3.16 µM, first compound 3 µM",1.27%
same,"viability, T/C","second compound 10 µM, first compound 0.00949 µM",74%
same,"viability, T/C","second compound 10 µM, first compound 0.03 µM",65.2%
same,"viability, T/C","second compound 10 µM, first compound 0.0949 µM",41.4%
same,"viability, T/C","second compound 10 µM, first compound 0.3 µM",17.4%
same,"viability, T/C","second compound 10 µM, first compound 0.949 µM",0.56%
same,"viability, T/C","second compound 10 µM, first compound 3 µM",1.22%
